Assay: refractive index (Na D-line) (dimensionless); xn = mol fraction of the nth substance listed
Conditions: 101 kPa, Liquid, Standard Abbe refractometry

CN(C)CCCO [3-dimethylamino-1-propanol] + O
refractive index
Conditions | x1 = 0.098 | x1 = 0.197 | x1 = 0.293 | x1 = 0.398 | x1 = 0.5 | x1 = 0.598 | x1 = 0.7 | x1 = 0.795 | x1 = 0.9 | x1 = 1
293.15 K | 1.3569 | 1.3653 | 1.3763 | 1.4033 | 1.4193 | 1.4284 | 1.4345 | 1.4393 | 1.443 | 1.4368
298.15 K | 1.3562 | 1.3644 | 1.3752 | 1.4018 | 1.4172 | 1.4268 | 1.4329 | 1.4377 | 1.4405 | 1.4347
303.15 K | 1.35534 | 1.3635 | 1.3742 | 1.4004 | 1.4155 | 1.4251 | 1.431 | 1.4359 | 1.439 | 1.4326
308.15 K | 1.3545 | 1.3625 | 1.3731 | 1.3987 | 1.4139 | 1.4233 | 1.4291 | 1.4338 | 1.4369 | 1.4305
313.15 K | 1.3537 | 1.3615 | 1.3719 | 1.3972 | 1.4121 | 1.4216 | 1.4273 | 1.4319 | 1.4349 | 1.4285
318.15 K | 1.3528 | 1.3605 | 1.3708 | 1.3956 | 1.4105 | 1.4199 | 1.4255 | 1.4302 | 1.4324 | 1.4264
323.15 K | 1.3517 | 1.3593 | 1.3696 | 1.3947 | 1.4088 | 1.418 | 1.4239 | 1.4286 | 1.4315 | 1.4243
328.15 K | 1.3506 | 1.3582 | 1.3682 | 1.3925 | 1.4072 | 1.4164 | 1.4226 | 1.427 | 1.4301 | 1.4222
333.15 K | 1.3502 | 1.3571 | 1.3671 | 1.391 | 1.4056 | 1.4146 | 1.4204 | 1.4245 | 1.4278 | 1.42

From the NIST ThermoML archive (doi:10.1016/j.tca.2012.05.025)
